The test system of this experiment is Ca^2+ influx in Jurkat T cells. Put plainly: Live cell Ca^2+ imaging (Fura-2) in Jurkat T cells. It counts as cell-based, human. To be noted: 10 μM CPA, absence of extracellular Ca^2+, Fura-2. On the procedure: Jurkat T cells were loaded with 4 μM Fura-2 AM (Life Technologies) for 60 min at 37 °C. Cells were then washed 3 times and incubated in Hank’s Balanced Salt Solution (HBSS) for 30 min at room temperature before use. Fluorescence at 340 nm and 380 nm excitation wavelengths was recorded on an inverted Nikon Ti-E microscope equipped with 340, 360 and 380 nm excitation filter wheels using NIS-Elements imaging software (Nikon Instruments Inc., Melville, NY, USA). Fura-2 ratios (F340/F380) reflect changes in [Ca^2+]i upon stimulation. Data were obtained from 100 to 250 cells in time-lapse images from each coverslip.
To test this hypothesis we performed live cell Ca^2+ imaging using the Ca^2+ indicator dye Fura-2 to determine the effect of Ktx-Sp2 on [Ca^2+]i in the presence of intracellular Ca^2+ store depletion by cyclopiazonic acid (CPA), an inhibitor of the sarcoplasmic reticulum Ca^2+-ATPase. […] When 2 mM Ca^2+ was added to the Ca^2+-free HBSS, we observed a large Ca^2+ influx into the cells. […] At 10 μM, Ktx-Sp2 decreased the F340/F380 ratio from 0.14 ± 0.02 to 0.05 ± 0.01 (n = 278) (Fig. 5b).

On to `CC(=O)C1=C(O)[C@@H]2[C@H]3c4c[nH]c5cccc(c45)C[C@H]3C(C)(C)N2C1=O` [CPA, cyclopiazonic acid, reference compound], for which the “rise of [Ca^2+]i induced by CPA” value is “relative small, transient rise of [Ca^2+]i”.
